Key:
[1] = Scotopic electroretinography after SCS TA (Example 9); type: in vivo, New Zealand White rabbit; settings: for Scotopic OdB wave A, Amplitude, Mean / Scotopic OdB wave A, Time, Mean / Scotopic OdB wave B, Amplitude, Mean / Scotopic OdB wave B, Time, Mean: right & left eye
Experimental: In this study, the ocular tolerability and toxicokinetics of suprachoroidal administration of triamcinolone acetonide (TA) using a microneedle in a GLP study in the New Zealand White rabbit.
On Day 0, New Zealand White (NZW) rabbits were administered a single bilateral supraehoroidal injection of vehicle, 3.2 mg (80 μL) or 5.2 mg (130 μL) of TA (Triesence®, Alcoa labs) using a 33 g 750 μm microneedle. Clinical observations, slit lamp biomicroscopy with McDonald-Shadduck scoring, intraocular pressure assessment (IOP), electroretinography (ERG), and systemic exposure were assessed up to 26 weeks post-dose. Animals were sacrificed on Day 1, Week 13, and Week 26 for macroscopic observations, ocular toxicokinetics, and ocular histopathology.

[2] = tested on: subretinal endotoxin-induced model of posterior segment uveitis; experiment: Subretinal endotoxin-induced model of posterior segment uveitis, pretreatment with SCS or IVT TA (Example 11); type: in vivo, New Zealand White rabbits
Experimental: (§1) In this study, the effects of pretreatment with suprachoroidal or intravitreal triamcinolone acetonide (TA) in a subretinal endotoxin-induced model of posterior segment uveitis in New Zealand White rabbits was evaluated.
(§2) On Day 1, female rabbits (4 eyes/group) received a single unilateral injection of vehicle or 4 mg TA (Triesence®, 40 mg/mL suspension, Alcon Labs) into the suprachoroidal space (SCS) using a 33 g 750 μm microneedle, or a 4 mg TA IVT injection using a standard 30 g needle. On Day 6, each animal received a single unilateral subretinal injection of lipopolysaccharide (LPS, 20-30 μL, 203 μg/g of 1% sodium hylauronate) to induce ocular inflammation in the treated eye. Animals were monitored for 22 days following dose administration. Endpoints included body weights, ocular observations, slit lamp biomicroscopy with McDonald-Shadduck scoring and photography, indirect ophthalmoscopy, fundus photography, intraocular pressure (IOP), and histopathology. A summary of the study design is shown below, in Table 6.

[3] = Safety endpoints (mortality, body weights, ocular observations, IOP) in the rabbit uveitis study (Example 11); type: in vivo, New Zealand White rabbits
Experimental: as §1, §2

[4] = Electroretinography in porcine uveitis study (Example 13); type: in vivo, domestic weanling pigs; settings: after SCS or IVT injections of 0.2 or 2.0 mg TA
Experimental: With the pigs anesthetized on Days −1, 0 and 3, and pupils dilated with 1% tropicamide HCl. and corneas anesthetized with 0.5% proparacaine HCl, whole field ERGs were recorded from the left eve prior to injections. All animals were dark adapted for 15 minutes prior to ERG. A monopolar contact lens electrode (ERG-jet, La Chaux des Fonds, Switzerland) was placed on the cornea to serve as an active electrode. A subdermal electrode at the lateral canthus served as the indifferent electrode. A Barraquer eyelid speculum was placed to maintain open eyelids and a subdermal needle electrode was inserted dorsally as the ground electrode. EKGs were elicited by brief flashes at 0.33 Hz delivered with a mini-ganzfehl photostimulator (Roland Instruments, Wiesbaden, Germany) at maximal intensity. Twenty responses were amplified, filtered, and averaged (Retiport Electrophysiologic Diagnostic Systems, Rolland Instruments, Wiesbaden, Germany). B wave amplitudes were recorded from each pig at the designated times.

[5] = tested on: LPS-induced acute posterior uveitis; experiment: Ocular histopathology and histologic inflammatory scores in porcine uveitis study (Example 13); type: in vivo
Experimental: Pigs were euthanized on study day 3 after clinical scoring, OCT, ERG, and wide-field ocular fundus photography was completed. After euthanasia with an overdose of intravenous barbiturate, both eyes were removed, Aqueous humor (All) was aspirated and a 1 mL sample of vitreous humor (VH) was collected from each eye immediately after euthanasia. The globe was then fixed in Davidson's solution for 24 hours, followed by alcohol. Central, saggital sections of each globe, including the optic nerve, were stained with hematoxylin and eosin and examined by light microscopy. Two pathology-trained observers, masked to the study groups, graded degree of inflammatory infiltrate of the ocular anterior and posterior segments. The grading scale for the anterior and posterior ocular segment used was as follows: 0=no evidence of cellular infiltrate; 1=a few cells infiltrated (mild)−focal; 2=a few cells infiltrated (mild)−diffuse; 3=moderate number of cells infiltrated; and 4=high amount of cellular infiltrate.
Differences were considered significant at P<0.05.

[6] = Ophthalmic examinations and clinical observations after 4 mg SCS TA (Example 16); type: in vivo, New Zealand White rabbit; settings: single bilateral suprachoroidal injection of 4 mg TA, albino rabbit
Experimental: In this study, the ocular tolerability and toxicokinetics of suprachoroidal administration of Ting triamcinolone acetonide (TA) using microneedle was determined, in the New Zealand White rabbit as an animal model.
On Day 0, New Zealand White (NZW) rabbits (4/sex/group/terminal time point, 48 total) were administered a single bilateral suprachoroidal injection of 100 μL of 4 ma TA (40 mg/mL) or vehicle, using a 33 g 750 μm microneedle. Clinical Observations, body weights, food consumption, slit lamp biomicroscopy with McDonald-Shadduck scoring, indirect ophthalmoscopy, intraocular pressure assessment (IOP), central corneal thickness (CCT), electroretinography (ERG), serum chemistry and hematology, and systemic exposure were assessed up to 13 weeks post-dose. Animals were sacrificed on Day 1 or Week 13 and were evaluated for macroscopic observations at necropsy and ocular histopathology. Four animals/sex were given an additional suprachoroidal administration on Day 90, and will be followed for an additional 13 weeks.

[7] = Group 3: LPS intravitreal/low dose (0.2 mg) TA SCS
[8] = Group 4: LPS intravitreal/high dose (2.0 mg) TA SCS
[9] = Group 5: LPS intravitreal/low dose (0.2 mg) TA IVT
[10] = Group 6 (printed: LPS intravitreal/high dose TA SCS)

What does the source list for `CC1(C)O[C@@H]2C[C@H]3[C@@H]4CCC5=CC(=O)C=C[C@]5(C)[C@@]4(F)[C@@H](O)C[C@]3(C)[C@]2(C(=O)CO)O1` [TA, triamcinolone acetonide]?
Scotopic OdB wave A, Amplitude, Mean ([1]; 3.2 mg TA/eye SCS, Baseline): −133.2 μV; Scotopic OdB wave A, Time, Mean ([1]; 3.2 mg TA/eye SCS, Baseline): 11.6 ms; Scotopic OdB wave B, Amplitude, Mean ([1]; 3.2 mg TA/eye SCS, Baseline): 285.8 μV; Scotopic OdB wave B, Time, Mean ([1]; 3.2 mg TA/eye SCS, Baseline): 42.1 ms; Scotopic OdB wave A, Amplitude, Mean ([1]; 3.2 mg TA/eye SCS, Day 1): −132 μV; Scotopic OdB wave A, Time, Mean ([1]; 3.2 mg TA/eye SCS, Day 1): 11.4 ms; Scotopic OdB wave B, Amplitude, Mean ([1]; 3.2 mg TA/eye SCS, Day 1): 276.5 μV; Scotopic OdB wave B, Time, Mean ([1]; 3.2 mg TA/eye SCS, Day 1): 47.5 ms; Scotopic OdB wave A, Amplitude, Mean ([1]; 3.2 mg TA/eye SCS, Week 13): −132.6 μV; Scotopic OdB wave A, Time, Mean ([1]; 3.2 mg TA/eye SCS, Week 13): 11.7 ms; Scotopic OdB wave B, Amplitude, Mean ([1]; 3.2 mg TA/eye SCS, Week 13): 299.8 μV; Scotopic OdB wave B, Time, Mean ([1]; 3.2 mg TA/eye SCS, Week 13): 51.1 ms; Scotopic OdB wave A, Amplitude, Mean ([1]; 5.2 mg TA/eye SCS, Baseline): −137.3 μV; Scotopic OdB wave A, Time, Mean ([1]; 5.2 mg TA/eye SCS, Baseline): 11.7 ms; Scotopic OdB wave B, Amplitude, Mean ([1]; 5.2 mg TA/eye SCS, Baseline): 286.4 μV; Scotopic OdB wave B, Time, Mean ([1]; 5.2 mg TA/eye SCS, Baseline): 42.3 ms; Scotopic OdB wave A, Amplitude, Mean ([1]; 5.2 mg TA/eye SCS, Day 1): −130.8 μV; Scotopic OdB wave A, Time, Mean ([1]; 5.2 mg TA/eye SCS, Day 1): 11.4 ms; Scotopic OdB wave B, Amplitude, Mean ([1]; 5.2 mg TA/eye SCS, Day 1): 265.7 μV; Scotopic OdB wave B, Time, Mean ([1]; 5.2 mg TA/eye SCS, Day 1): 43.1 ms; Scotopic OdB wave A, Amplitude, Mean ([1]; 5.2 mg TA/eye SCS, Week 13): −117.1 μV; Scotopic OdB wave A, Time, Mean ([1]; 5.2 mg TA/eye SCS, Week 13): 12.6 ms; Scotopic OdB wave B, Amplitude, Mean ([1]; 5.2 mg TA/eye SCS, Week 13): 264.6 μV; Scotopic OdB wave B, Time, Mean ([1]; 5.2 mg TA/eye SCS, Week 13): 45.7 ms; effect on a-wave or b-wave implicit time or amplitude (scotopic ERG) ([1]; 3.2 or 5.2 mg TA SCS): no administration or TA-related effect; Iris vessel dilation and tortuosity compared with the SCS vehicle group ([2]; 4 mg TA IVT): reduced to a lesser extent; Vitritis, aqueous flare, and cellularity compared to SCS vehicle eyes ([2]; 4 mg TA IVT): substantially less severe; inflammation as assessed histopathologically compared with the vehicle group ([2]; 4 mg TA IVT): marked reduction; Iris vessel dilation and tortuosity compared with the SCS vehicle group ([2]; 4 mg TA SCS): reduced; Vitritis, aqueous flare, and cellularity compared to SCS vehicle eyes ([2]; 4 mg TA SCS): substantially less severe; inflammation as assessed histopathologically compared with the vehicle group ([2]; 4 mg TA SCS): marked reduction; effectiveness in reducing the inflammatory response, SCS vs IVT ([2]; 4 mg TA SCS by hollow microneedle): as effective as 4 mg IVT TA; overall inflammatory response / inflammatory endpoints compared to vehicle control ([2]; 4 mg TA SCS, pretreatment Day 1, LPS Day 6): significant reduction; IOP after SCS TA administration ([3]; 4 mg TA SCS): no significant increase; effects on mortality, body weights, or ocular observations ([3]; 4 mg TA SCS or IVT): no test article- or administration-related effects; retinal dysfunction (decrease in b wave amplitude) [4]: no evidence of retinal dysfunction; inflammation or histologic evidence of toxicity in the SCS ([5]; 2.0 mg TA SCS (Group 4)): no inflammation or histologic evidence of toxicity in the SCS; histopathology, inner retinal layers and vitreous [5, 7]: moderate infiltrate of neutrophils; histopathology, iris [5, 7]: mild neutrophilic infiltrate; histopathology, anterior segment [5, 8]: normal; histopathology, vitreous [5, 8]: very mild neutrophilic infiltration; mean histologic inflammatory scores in the ocular posterior segment compared with Groups 2, 5 and 6 ([5]; Group 4: high dose TA SCS): significantly lower; histopathology, anterior uvea [5, 9]: mild neurophilic infiltrate; histopathology, vitreous [5, 9]: moderate to severe cellular infiltrate; mean histologic inflammatory scores in the anterior segment compared with Groups 4 and 6 ([5]; Group 5: low dose TA IVT): significantly higher; histopathology, anterior uvea [5, 10]: mild neutrophilic infiltrate; histopathology, vitreous [5, 10]: moderate vitreal infiltrates; mean histologic inflammatory scores compared with vehicle treated eyes (Group 2) ([5]; Group 6: high dose IVT TA): significantly lower; tissue structural or toxicologic changes on histopathology ([5]; all groups, 0.2 or 2.0 mg TA SCS or IVT): None of the eyes examined in any group had evidence of substantial tissue structural or toxicologic changes; tolerability [6]: well tolerated

Source: patent US20180028516A1, “METHODS AND DEVICES FOR THE TREATMENT OF OCULAR DISEASES IN HUMAN SUBJECTS” (CLEARSIDE BIOMEDICAL, INC., priority 2012, published 2018)
